Data on 2 compounds can be found in patent US20240382508A1, “REGENERATIVE AGENT FOR BONE TISSUE AND LUNG TISSUE, AND PHARMACEUTICAL COMPOSITION FOR REGENERATING BONE TISSUE AND LUNG TISSUE” (NIIGATA UNIVERSITY, priority 2021, published 2024).

Entries after “also recorded” stand apart in the source; their conditions may differ.

The test system of experiment [1] is experimental periodontitis model mice. In words: bone regeneration in experimental periodontitis model mice (teeth ligated with silk threads). It counts as in vivo, mouse. The note with it: 22-month-old aging mice; 20 mg/kg intraperitoneally once; 5 days regeneration period. From the text: Experimental periodontitis model mice in which teeth are ligated with silk threads are useful models for inflammatory bone destruction research because inflammations and bone resorption occur in about 10 days after the ligation. The above-described experimental periodontitis models were produced by using 6-week-old wild-type mice (N=8, male C57BL/6N mice, manufactured by CLEA Japan, Inc.), 22-month-old aging mice (N=4, male C57BL/6N mice, manufactured by CLEA Japan, Inc.), and 6-week-old DEL-1-deficient mice (N=8, male C57BL/6N mice (manufactured by CLEA Japan, Inc.), a method for producing the deficient mice was as described in Non Patent Document 1), the silk threads were removed 10 days after the ligation, a remission phase of inflammation of 5 days passed, and in the wild-type mice, new bone formation was recognized at the site of resorbed bone defect while no repair mechanism of the periodontal tissue by DEL-1 was recognized.
The experimental periodontitis models described in Example 1 were produced by using 6-week-old wild-type mice (N=8, male C57BL/6N mice, manufactured by CLEA Japan, Inc.), 22-month-old aging mice (N=4, male C57BL/6N mice, manufactured by CLEA Japan, Inc.), and 6-week-old DEL-1-deficient mice (N=8, male C57BL/6N mice (manufactured by CLEA Japan, Inc.), a method for producing the deficient mice was as described in Non Patent Document 1), the silk threads were removed 10 days after the ligation to experimentally induce periodontitis, subsequently a bone regeneration period of 5 days was provided, and then the amount of regeneration of resorbed bone was measured using a stereomicroscope and image measurement software (manufactured by Nikon Corporation). Erythromycin (10 mg/kg) and ethanol (final concentration 0.1% by mass) were intraperitoneally administered once after the removal of the silk threads. In addition, DEL-1 (1 μg) and Fc control (0.84 μg) were directly inoculated into the gingiva after the removal of the silk threads. The results are shown in FIG. 3 (left: wild-type mice, right: DEL-1-deficient mice) and FIG. 4 (aging mice).
Next, the experimental periodontitis model described in Example 1 was produced by using 22-month-old aging mice (N=4, male C57BL/6N mouse, manufactured by CLEA Japan, Inc.), the silk threads were removed 10 days after the ligation to experimentally induce periodontitis, subsequently a bone regeneration period of 5 days was provided, and the amount of regeneration of resorbed bone was measured using a stereomicroscope and image measurement software (manufactured by Nikon Corporation). Erythromycin (ERM) (20 mg/kg), azithromycin (AZM) (20 mg/kg), clarithromycin (CLM) (20 mg/kg), and ethanol (final concentration 0.1% by mass) as a control were intraperitoneally administered once after the removal of the silk threads. […] In addition, there was no difference in the amount of bone regeneration between the macrolide antimicrobial agent-administered groups.

The subject of experiment [2] is osteoblasts. The experiment in a line: bone nodule measurement in osteoblasts (Alizarin red S). It is filed as cell-based, mouse. The settings on record: osteoblasts derived from wild-type mice; 10 μg/mL each; 15 days. The method, then: Next, from the cranial bones of 3-day-old wild-type mice (N=6, male C57BL/6N mice, manufactured by CLEA Japan, Inc.) and 3-day-old DEL-1-deficient mice (N=6, male C57BL/6N mice (manufactured by CLEA Japan, Inc.), a method for producing the deficient mice was as described in Non Patent Document 1), osteoblasts were isolated by allowing 0.1% by mass of type 1 collagenase and 0.2% by mass of dispase to act at 37° C. for 20 minutes, and the cells were cultured in α-MEM and a bone differentiation medium (containing 50 μg/ml ascorbic acid and 10 mM β-glycerol 2-phosphate). Ethanol (final concentration 0.1% by mass) and erythromycin (10 μg/mL) were added into the medium in which the osteoblasts (1×10^4 cells/mL) derived from the wild-type mice or the DEL-1-deficient mice were cultured. The medium was exchanged every 3 days, and after 15 days, the cells were stained with Alizarin red S, followed by performing of bone nodule measurement.
Next, the proportion (%) of bone nodules with respect to the observation region in the above-described osteoblasts was calculated from microscopic images by using image processing software (NIH Image). In addition, RNA was extracted from each of the osteoblasts by using an RNeasy Kit (manufactured by QIAGEN NV), subsequently cDNA was synthesized by using a cDNA synthesis kit (manufactured by Thermo Fisher Scientific, Inc.), and the relative expression levels of RUNX2 mRNA, Sp7 mRNA, and Bglap mRNA, which are important for bone regeneration, were checked by an RT-PCR method (Quantstudio3, Thermo Fisher Scientific, Inc.). Regarding primers, designed primers manufactured by Thermo Fisher Scientific, Inc. were used. The Assay IDs of the primers used are shown below.
(Bone regeneration-inducing effect 2 by various macrolide antimicrobial agents) From the cranial bones of 3-day-old wild-type mice (N=6, male C57BL/6N mice, manufactured by CLEA Japan, Inc.), osteoblasts were isolated by allowing 0.1% by mass of type 1 collagenase and 0.2% by mass of dispase to act at 37° C. for 20 minutes, and the cells were cultured in α-MEM and a bone differentiation medium (containing 50 μg/ml ascorbic acid and 10 mM β-glycerol 2-phosphate). Ethanol (final concentration 0.1% by mass), or erythromycin, clarithromycin, or azithromycin (10 μg/mL each) was added into the medium in which the osteoblasts (1×10^4 cells/mL) derived from the wild-type mice were cultured. The medium was exchanged every 3 days, and after 15 days, the cells were stained with Alizarin red S, followed by performing of bone nodule measurement. The results are shown in FIG. 11 In FIG. 11, the symbol * indicates p<0.05, and the symbol ** indicates p<0.01. In addition, the control is an ethanol (final concentration 0.1% by mass)-added group.

For experiment [3], the system named is bone defects in the jawbones. The experiment in a line: jawbone defect regeneration in cynomolgus monkeys (microCT). It counts as in vivo. The settings on record: 200 μg at bone defect site, one month. The procedure: Bone defects with a diameter of 2 cm and a depth of 2 cm were artificially produced in the jawbones of young (2 years old) and aged (10 years old) cynomolgus monkeys by using a round steel bar. Next, 200 μg of each of erythromycin, clarithromycin, and azithromycin were added to the bone defect sites. As controls, a non-administered group and a group administered with 200 μg of REGROTH (registered trademark), which has been approved as a bone regenerative agent, were also prepared. The amount of bone regeneration after one month from the administration of each drug was checked by using microCT. In FIG. 10, the symbol * indicates p<0.01.

Experiment [4] concerns iCell mesenchymal stem cells. In words: bone nodule measurement in mesenchymal stem cells induced from human iPS cells. It counts as cell-based. The note with it: 10 μg/mL for each; 15 days; bone differentiation medium. The procedure: iCell (registered trademark) mesenchymal stem cells (iCell (registered trademark) MSCs) (#01279, manufactured by Fujifilm Corporation) (1×10^4 cells/mL) obtained by inducing human mesenchymal stem cells from iPS cells, were cultured in α-MEM and a bone differentiation medium (containing 50 μg/mL ascorbic acid and 10 mM β-glycerol 2-phosphate). Ethanol (final concentration 0.1% by mass), or erythromycin, clarithromycin, or azithromycin (10 μg/mL for each) was added to the medium. The medium was exchanged every 3 days, and after 15 days, the cells were stained with Alizarin red S, followed by performing of bone nodule measurement. The results are shown in FIG. 18 (stained images) and FIG. 19 (graph showing the proportion of bone nodules). In FIG. 18 and FIG. 19, the ethanol (final concentration 0.1% by mass)-added group is a control. In FIG. 19, the symbol * indicates p≤0.05, the symbol ** indicates p≤0.01, the symbol *** indicates p≤0.001, and the symbol **** indicates p≤0.0001.

Setting [5] is: aged (10 years old) cynomolgus monkeys.
Setting [6] is: young (2 years old) cynomolgus monkeys.

In the case of `CC[C@H]1OC(=O)[C@H](C)[C@@H](O[C@H]2C[C@@](C)(OC)[C@@H](O)[C@H](C)O2)[C@H](C)[C@@H](O[C@@H]2O[C@H](C)C[C@H](N(C)C)[C@H]2O)[C@](C)(OC)C[C@@H](C)C(=O)[C@H](C)[C@@H](O)[C@]1(C)O` [clarithromycin], in experiment [1], the “bone regeneration (FIG. 9)” value is listed as “bone regeneration was recognized”. For the same compound, the “formation of bone nodules (FIG. 11)” value in experiment [2] is “the formation of bone nodules was recognized”. Further, the “bone regeneration effect (FIG. 10)” value in experiment [3] (setting [5]) and in experiment [3] (setting [6]) was “a bone regeneration effect was recognized” each time. Further, in experiment [4], the “formation of bone nodules (FIG. 18, FIG. 19)” value was “the formation of bone nodules was recognized”.
For the compound `CC[C@H]1OC(=O)[C@H](C)[C@@H](O[C@H]2C[C@@](C)(OC)[C@@H](O)[C@H](C)O2)[C@H](C)[C@@H](O[C@@H]2O[C@H](C)C[C@H](N(C)C)[C@H]2O)[C@](C)(O)C[C@@H](C)CN(C)[C@H](C)[C@@H](O)[C@]1(C)O` [azithromycin], the “bone regeneration (FIG. 9)” value in experiment [1] was “bone regeneration was recognized”. The “formation of bone nodules (FIG. 11)” value in experiment [2] is “the formation of bone nodules was recognized; also recorded: particularly favorable”. Besides, the “bone regeneration effect (FIG. 10)” value in experiment [3] (setting [5]) and in experiment [3] (setting [6]) was “a bone regeneration effect was recognized” throughout. In experiment [4], the “formation of bone nodules (FIG. 18, FIG. 19)” value is “the formation of bone nodules was recognized”.
